Laboratory results taken from patent US20240123080A1, “CYTOTOXIC COMPOUNDS AND CONJUGATES THEREOF” (Seagen Inc., priority 2022, published 2024).
*1 amine or outer side, *2 acyl side, *3 side chain or, on linkers, in order; H or OH if unused. Where a SMILES comes first, the peptide text is derived from it. [ ]: non-standard residue; d: D form. The star is where a group is joined. Dolaproine = CO[C@@H]([C@@H]1CCCN1)[C@@H](C)C(=O)O; Dil = CC[C@H](C)[C@H](NC)[C@@H](CC(=O)O)OC; Met(O2) = CS(=O)(=O)CC[C@H](N)C(=O)O; X9 = CCN([C@@H](CO)C(=O)[*:2])[*:1]; X1 = C[C@@H](N*)[C@@H](O)c1ccccc1; X10 = C[C@H]1OC(=O)N[C@@H]1C(=O)*; Phe(ol) = N[C@H](CO)Cc1ccccc1; X4 = CN1C(=O)OC(C)(C)C1C(=O)*; X6 = CN(C)[C@@H](CCO)C(=O)*; X8 = CN1C(=O)OC[C@H]1C(=O)*; X5 = O=C1N[C@H](C(=O)*)CO1; NMeS = CN[C@@H](CO)C(=O)O; hSer = N[C@@H](CCO)C(=O)O; X7 = O=C1NC(C(=O)*)CCO1; Dap = NC[C@H](N)C(=O)O

What was measured:
Assay in all cases: In vitro cytotoxicity, cell proliferation assay (CellTiter-Glo, 96 h)
Assay type in all cases: cell-based
L540cy HL = conditions: auristatin free drug
Experimental: (§1) The cytotoxicity of free drugs and drug conjugates were measured by a cell proliferation assay employing the protocol described in Promega Corp. Technical Bulletin TB288; and Mendoza et al., 2002, Cancer Res. 62:5485-5488), the methods of which are specifically incorporated by reference herein. Briefly, an aliquot of 40 μl of cell culture containing about 400 cells in medium is deposited in each well of a 384-well, opaque-walled plate. A 10 μL aliquot of free drug or drug conjugate is added to the experimental wells and incubated for 96 h and are then equilibrated to room temperature for approximately 30 minutes whereupon a volume of CellTiter-Glo™ reagent equal to the volume of cell culture medium present in each well is added. The contents are mixed for 2 minutes on an orbital shaker to induce cell lysis and the plate is incubated at room temperature for 10 minutes to stabilize the luminescence signal for recordation.

DEL ALCL = conditions: auristatin free drug
Experimental: as §1

Karpas299 NHL = conditions: Homo sapiens, KARPAS-299, auristatin free drug
Experimental: as §1

SMILES | IC50 (L540cy HL) [nM] | IC50 (DEL ALCL) [nM] | IC50 (Karpas299 NHL) [nM]
CC[C@H](C)[C@@H]([C@@H](CC(=O)N1CCC[C@H]1[C@H](OC)[C@@H](C)C(=O)N[C@@H](Cc1ccccc1)C(=O)O)OC)N(C)C(=O)[C@@H](NC(=O)[C@H](CO)NC)C(C)C [Comparative Example A, reference compound] (H-[NMeS]V[Dil][Dolaproine]F-OH) | > 1000 | 209 | 253
CC[C@H](C)[C@@H]([C@@H](CC(=O)N1CCC[C@H]1[C@H](OC)[C@@H](C)C(=O)N[C@@H](Cc1ccccc1)C(=O)O)OC)N(C)C(=O)[C@@H](NC(=O)[C@@H]1COC(=O)N1C)C(C)C [Comparative Example C, reference compound] (X8-V[Dil][Dolaproine]F-OH) | 284 | 342 | 218
CC[C@H](C)[C@@H]([C@@H](CC(=O)N1CCC[C@H]1[C@H](OC)[C@@H](C)C(=O)N[C@H](CO)Cc1ccccc1)OC)N(C)C(=O)[C@@H](NC(=O)[C@H](CCO)N(C)C)C(C)C [Example 9] (X6-V[Dil][Dolaproine][Phe(ol)]) | 4 | 0.8 | 0.9
CC[C@H](C)[C@@H]([C@@H](CC(=O)N1CCC[C@H]1[C@H](OC)[C@@H](C)C(=O)N[C@H](C)[C@@H](O)c1ccccc1)OC)N(C)C(=O)[C@@H](NC(=O)[C@H]([C@@H](C)O)N(C)C)C(C)C [Example 10] | 3 | 0.4 | 0.5
CC[C@H](C)[C@@H]([C@@H](CC(=O)N1CCC[C@H]1[C@H](OC)[C@@H](C)C(=O)N[C@H](C)[C@@H](O)c1ccccc1)OC)N(C)C(=O)[C@@H](NC(=O)[C@@H](CO)N(C)C)C(C)C [Example 11] | 6 | 1 | 1
CCN[C@@H](CO)C(=O)N[C@H](C(=O)N(C)[C@@H]([C@@H](C)CC)[C@@H](CC(=O)N1CCC[C@H]1[C@H](OC)[C@@H](C)C(=O)N[C@H](CO)Cc1ccccc1)OC)C(C)C [Example 15] (H-[X9]V[Dil][Dolaproine][Phe(ol)]) | 3.9 | 0.7 | 2.3
CC[C@H](C)[C@@H]([C@@H](CC(=O)N1CCC[C@H]1[C@H](OC)[C@@H](C)C(=O)N[C@H](CO)Cc1ccccc1)OC)N(C)C(=O)[C@@H](NC(=O)C[C@@H](NC)[C@@H](C)O)C(C)C [Example 22] | 16 | 5.8 | 13
CC[C@H](C)[C@@H]([C@@H](CC(=O)N1CCC[C@H]1[C@H](OC)[C@@H](C)C(=O)N[C@H](CO)Cc1ccccc1)OC)N(C)C(=O)[C@@H](NC(=O)[C@@H](N)CO)C(C)C [Example 23] (H-SV[Dil][Dolaproine][Phe(ol)]) | 662 | 17 | 66
CC[C@H](C)[C@@H]([C@@H](CC(=O)N1CCC[C@H]1[C@H](OC)[C@@H](C)C(=O)N[C@H](CO)Cc1ccccc1)OC)N(C)C(=O)[C@@H](NC(=O)[C@@H](N)CCO)C(C)C [Example 24] (H-[hSer]V[Dil][Dolaproine][Phe(ol)]) | 621 | 13 | 43
CC[C@H](C)[C@@H]([C@@H](CC(=O)N1CCC[C@H]1[C@H](OC)[C@@H](C)C(=O)N[C@H](CO)Cc1ccccc1)OC)N(C)C(=O)[C@@H](NC(=O)[C@@H](N)[C@@H](C)O)C(C)C [Example 25] (H-TV[Dil][Dolaproine][Phe(ol)]) | 457 | 18.9 | 62
CC[C@H](C)[C@@H]([C@@H](CC(=O)N1CCC[C@H]1[C@H](OC)[C@@H](C)C(=O)N[C@H](C)[C@@H](O)c1ccccc1)OC)N(C)C(=O)[C@@H](NC(=O)[C@H](N)CO)C(C)C [Example 26] (H-[dS]V[Dil][Dolaproine]-X1) | 20 | 4.2 | 5
CC[C@H](C)[C@@H]([C@@H](CC(=O)N1CCC[C@H]1[C@H](OC)[C@@H](C)C(=O)N[C@H](C)[C@@H](O)c1ccccc1)OC)N(C)C(=O)[C@@H](NC(=O)[C@H](N)[C@H](C)O)C(C)C [Example 27] (H-[dT]V[Dil][Dolaproine]-X1) | 13 | 1.9 | 2.3
CC[C@H](C)[C@@H]([C@@H](CC(=O)N1CCC[C@H]1[C@H](OC)[C@@H](C)C(=O)N[C@H](CO)Cc1ccccc1)OC)N(C)C(=O)[C@@H](NC(=O)[C@@H]1COC(=O)N1C)C(C)C [Example 36] (X8-V[Dil][Dolaproine][Phe(ol)]) | 197 | 6.7 | 27
CC[C@H](C)[C@@H]([C@@H](CC(=O)N1CCC[C@H]1[C@H](OC)[C@@H](C)C(=O)N[C@H](C)[C@@H](O)c1ccccc1)OC)N(C)C(=O)[C@@H](NC(=O)[C@@H]1COC(=O)N1C)C(C)C [Example 37] | > 1000 | > 1000 | > 1000
CC[C@H](C)[C@@H]([C@@H](CC(=O)N1CCC[C@H]1[C@H](OC)[C@@H](C)C(=O)NCCc1ccccc1)OC)N(C)C(=O)[C@@H](NC(=O)[C@@H]1COC(=O)N1C)C(C)C [Example 38] | 512 | 148 | > 1000
CC[C@H](C)[C@@H]([C@@H](CC(=O)N1CCC[C@H]1[C@H](OC)[C@@H](C)C(=O)N[C@@H](Cc1ccccc1)c1nccs1)OC)N(C)C(=O)[C@@H](NC(=O)[C@@H]1COC(=O)N1C)C(C)C [Example 39] | > 1000 | 512 | > 1000
CC[C@H](C)[C@@H]([C@@H](CC(=O)N1CCC[C@H]1[C@H](OC)[C@@H](C)C(=O)N[C@H](CO)Cc1ccccc1)OC)N(C)C(=O)[C@@H](NC(=O)[C@@H]1COC(=O)N1)C(C)C [Example 40] (X5-V[Dil][Dolaproine][Phe(ol)]) | 442 | 12.3 | 60
CC[C@H](C)[C@@H]([C@@H](CC(=O)N1CCC[C@H]1[C@H](OC)[C@@H](C)C(=O)N[C@H](CO)Cc1ccccc1)OC)N(C)C(=O)[C@@H](NC(=O)C1CCOC(=O)N1)C(C)C (stereo partly drawn) [Example 41] (X7-V[Dil][Dolaproine][Phe(ol)]) | 457 | 15 | 62
CC[C@H](C)[C@@H]([C@@H](CC(=O)N1CCC[C@H]1[C@H](OC)[C@@H](C)C(=O)N[C@H](CO)Cc1ccccc1)OC)N(C)C(=O)[C@@H](NC(=O)[C@H]1NC(=O)O[C@@H]1C)C(C)C [Example 42] (X10-V[Dil][Dolaproine][Phe(ol)]) | 481 | 16 | 64
CC[C@H](C)[C@@H]([C@@H](CC(=O)N1CCC[C@H]1[C@H](OC)[C@@H](C)C(=O)N[C@H](CO)Cc1ccccc1)OC)N(C)C(=O)[C@@H](NC(=O)C1N(C)C(=O)OC1(C)C)C(C)C (stereo partly drawn) [Example 43] (X4-V[Dil][Dolaproine][Phe(ol)]) | 19 | 3.2 | 5.9
CC[C@H](C)[C@@H]([C@@H](CC(=O)N1CCC[C@H]1[C@H](OC)[C@@H](C)C(=O)N[C@H](CO)Cc1ccccc1)OC)N(C)C(=O)[C@@H](NC(=O)[C@@H](N)CNC(C)=O)C(C)C [Example 46] (H-[Dap](Ac)V[Dil][Dolaproine][Phe(ol)]) | > 1000 | 141 | 264
CC[C@H](C)[C@@H]([C@@H](CC(=O)N1CCC[C@H]1[C@H](OC)[C@@H](C)C(=O)N[C@H](CO)Cc1ccccc1)OC)N(C)C(=O)[C@@H](NC(=O)[C@@H](N)CCS(C)(=O)=O)C(C)C [Example 47] (H-[Met(O2)]V[Dil][Dolaproine][Phe(ol)]) | > 1000 | > 1000 | > 1000
